{"source": "patent US10206894B2", "about": "“Compounds for use in treatment of mucositis” (priority 2011, dated 2019)", "key": {"[1]": {"tested_on": "fractionated radiation and cisplatin induced oral mucositis, left buccal cheek pouch", "assay_type": "in vivo", "settings": "for peak mean mucositis score: peak on Day 19", "procedure": "Seventy (70) male Syrian Golden Hamsters were used in this example. Mucositis was induced using a combination of fractionated radiation and cisplatin. Cisplatin was administered on Days 0 and 6 at a dose of 5 mg/kg by i.p. injection. Each hamster was administered a total radiation dose of 60 Gy directed to their left buccal cheek pouch split into eight equal fractions of 7.5 Gy provided on Days 0, 1, 2, 3, 6, 7, 8 and 9. Radiation was generated with a 160 kilovolt potential (15-ma) source at a focal distance of 50 cm, hardened with a 0.35 mm Cu filtration system. Irradiation targeted the left buccal pouch mucosa at a rate of 2.0 Gy/minute. Prior to irradiation, animals were anesthetized with an i.p. injection of ketamine (160 mg/mL) and xylazine (8 mg/mL). The left buccal pouch was everted, fixed and isolated using a lead shield. Test materials were administered topically to the left cheek pouch three times daily, as detailed in Table 3 at a dose of 3 mg/mL in a volume of 0.5 mL per dose, either on the days of radiation (Days 0-3, 6-9), the days on which radiation was not administered (−1, 4, 5 and 10), Days 0-12 or Days 0-35. Mucositis in the left cheek pouch was evaluated clinically starting on Day 7, and continuing on alternate days until Day 35. On Day 35, all animals were euthanized by CO2 inhalation and death was confirmed by monitoring heartbeat in accordance with USDA guidelines.\nThe mucositis score, weight change and survival were measured throughout the study. For the evaluation of mucositis, the animals were anesthetized with an inhalation anesthetic, and the left pouch everted. Mucositis was scored visually by comparison to a validated photographic scale, ranging from 0 for normal, to 5 for severe ulceration (as described above in Example 2). A score of 1-2 is considered to represent a mild stage of the disease, whereas a score of 3-5 is considered to indicate moderate to severe mucositis. Following visual scoring, a digital image was taken of each animal's mucosa using a standardized technique. At the conclusion of the experiment, images were randomly numbered and scored by two independent trained observers graded the photographs in blinded fashion using the above-described scale (blinded scoring).\nThe grade of mucositis was scored, beginning on day 7, and for every second day thereafter, through and including day 35, The effect on mucositis of each drug treatment compared to placebo was assessed according to the following parameters: the difference in the number of days hamsters in each group had ulcerative (score ≥3) mucositis and the rank sum differences in daily mucositis scores.\nOn each evaluation day, the number of animals with a blinded mucositis score of ≥3 in each drug treatment group was compared to the control group. Differences were compared on a cumulative basis and statistical significance was determined by chi-square analysis. Efficacy, in this analysis, is defined by a significant reduction in the number of days that a group of animals had ulcerations (scores ≥3) when compared to the control group.\nFor each evaluation day the scores of the control group were compared to those of the treated groups using non-parametric rank sum analysis. Treatment success was considered as a statistically significant lowering of scores in the treated group on 2 or more days from day 6 to day 28.\nAll animals were weighed daily and their survival recorded to assess possible differences in animal weight among treatment groups as an indication for mucositis severity and/or possible toxicity resulting from the treatments. No deaths were observed during this study.\nAn analysis of the severity of mucositis was performed using the Mann-Whitney rank sum analysis to compare the scores for each treatment group to the controls on each day of the analysis. In this analysis, 2 days of significant reduction in the mucositis score are generally required before it is regarded as meaningful."}, "[2]": {"tested_on": "FaDu human head and neck cancer xenograft", "assay": "Tumor growth and response to therapy in FaDu xenograft", "assay_type": "in vivo, nude mice (nu/nu)", "settings": "for mice euthanized for tumor volume in excess of 1500 mm^3: vehicle groups 43.3%; for survival at Day 29: vehicle groups 26.7%; for mice euthanized for tumor ulceration: vehicle groups 30%", "procedure": "Ninety (90) male nude mice (nu/nu) were divided into nine (9) groups of ten […]) mice per group. To ensure that a sufficient number of tumor-bearing animals were available for this study, a total of 100 mice were inoculated s.c. in the flank with 1×10^6 FaDu cells. FaDu (HTB-43) human head and neck cancer cells were obtained from ATCC. These cells were grown in EMEM medium supplemented with 10% Fetal Calf Serum (FCS), 1% penicillin and streptomycin, and 2 mM L-Glutamine. […] The flask was incubated at 37° C. until cells detached. Cells were then sub-cultured at a ratio of 1:3. […] Tumors were measured once every two days with micro-calipers, and tumor volume was calculated as (length×width×width)/2. Where animals were euthanized for tumor volume exceeding the maximum permissible by IACUC rules (1500 mm^3) or tumor ulceration, the last measurement was carried forward in calculations of mean tumor volume.\nAll animals were weighed every day and their survival recorded, to assess possible differences in animal weight among treatment groups as an indication of possible toxicity resulting from the treatments. […] Any animals whose tumor grew to over 1500 mm^3 were also euthanized.\nFurther analysis of the tumor volume data was performed by calculating the mean area under the curve (AUC) for the tumor volume for each animal and comparing the groups using an ANOVA on ranks test. Due to the impact of animals euthanized for tumor ulceration or volume in excess of 1500 mm^3, this analysis was performed on data to Day 15 as well as on the full data set to Day 29."}}, "note": "Where two headings read alike, the source gives them in different places."}
{"smiles": "N=C(N)NCCCCC(=O)Nc1cc(C(F)(F)F)cc(NC(=O)c2cc(C(=O)Nc3cc(C(F)(F)F)cc(NC(=O)CCCCNC(=N)N)c3OC3CCNC3)ncn2)c1OC1CCNC1", "note": "(centres unmarked) [Compound X]", "values": [{"measurement": "mucositis scores vs saline control group (Mann-Whitney rank sum)", "setting": "[1]; 3 mg/mL tid Day 0 until Day 35, Days 11 (p=0.002), 13 (p=0.023), 15-35 (p<0.001)", "value": "statistically significant reductions"}, {"measurement": "mucositis scores vs Kleptose control group (Mann-Whitney rank sum)", "setting": "[1]; 3 mg/mL tid Day 0 until Day 35, Days 17-35 (p<0.001 for all days)", "value": "statistically significant reductions"}, {"measurement": "peak mean mucositis score", "setting": "[1]; 3 mg/rid (in Kleptose vehicle), dosed Days 0-3 and 6-9", "value": 3.1}, {"measurement": "% reduction of animal days with OM scores ≥ 3", "setting": "[1]; Fractionated Radiation", "value": 92.6, "unit": "%"}, {"measurement": "percentage of hamsters in which an ulcer formed during the study", "setting": "[1]; dosed Day 0 to Day 35, 100% in saline and vehicle controls", "value": 10, "unit": "%"}, {"measurement": "ulceration rate", "setting": "[1]; dosed Days 0-3 and 6-9, on Day 17, continued until Day 29", "value": 100, "unit": "%"}, {"measurement": "percentage of animal days with a score of 3 or higher", "setting": "[1]; dosed Days 0-3 and 6-9, saline control 54.7%", "value": 58.0, "unit": "%"}, {"measurement": "maximum mean mucositis score", "setting": "[1]; dosed Days 0-12, maximum on Days 19, 21 and 23", "value": 3.1}, {"measurement": "ulceration rate", "setting": "[1]; dosed Days 0-12, on Day 17, continued until Day 27", "value": 100, "unit": "%"}, {"measurement": "percentage of animal days with a score of 3 or higher", "setting": "[1]; dosed Days 0-12, saline control 54.7%", "value": 58.0, "unit": "%"}, {"measurement": "maximum mean mucositis score", "setting": "[1]; dosed Days 0-35, maximum on Days 19 and 21", "value": 2.1}, {"measurement": "ulceration rate", "setting": "[1]; dosed Days 0-35, on Days 15-23 (single hamster)", "value": 10, "unit": "%"}, {"measurement": "percentage of animal days with a score of 3 or higher (incidence of ulcerative oral mucositis)", "setting": "[1]; dosed Days 0-35, saline control 54.7%, Kleptose vehicle 56.0%, p<0.001", "value": 3.3, "unit": "%"}, {"measurement": "ulceration rate", "setting": "[1]; dosed Days −1, 4, 5, and 10, on Day 19 only", "value": 100, "unit": "%"}, {"measurement": "peak mean mucositis score", "setting": "[1]; dosed Days −1, 4, 5, and 10", "value": 3.1}, {"measurement": "percentage of animal days with a score of 3 or higher", "setting": "[1]; dosed Days −1, 4, 5, and 10, saline control 54.7%", "value": 48.0, "unit": "%"}, {"measurement": "mucositis scores vs control (Mann-Whitney rank sum)", "setting": "[1]; dosed Days −1, 4, 5 and 10, Days 21 (p=0.018), 23, 25 (p=0.040), 33, 35 (p=0.036)", "value": "statistically significant reductions"}, {"measurement": "daily mean mucositis scores and number of days animals exhibited ulceration", "setting": "[1]; fractionated radiation model, oral rinse 3 times daily, 35 day treatment regimen", "value": "significantly reduced"}, {"measurement": "adverse findings in weight gain, general behavior in the home cage, or clinical signs", "setting": "[1]; hamster, in vivo", "value": "no adverse findings"}, {"measurement": "adverse reaction to treatment", "setting": "[1]; hamster, in vivo", "value": "no evidence of any adverse reaction"}, {"measurement": "mean tumor volume", "setting": "[2]; 0.06 mg/kg, Day 1", "value": 102, "unit": "mm^3"}, {"measurement": "mean tumor volume", "setting": "[2]; 0.06 mg/kg, Day 15", "value": 904, "unit": "mm^3"}, {"measurement": "mean tumor volume", "setting": "[2]; 0.06 mg/kg, Day 27 when final animal in group was euthanized", "value": 2234, "unit": "mm^3"}, {"measurement": "mean tumor volume", "setting": "[2]; 0.3 mg/kg, Day 1", "value": 96, "unit": "mm^3"}, {"measurement": "mean tumor volume", "setting": "[2]; 0.3 mg/kg, Day 15", "value": 869, "unit": "mm^3"}, {"measurement": "mean tumor volume", "setting": "[2]; 0.3 mg/kg, end of the study", "value": 1002, "unit": "mm^3"}, {"measurement": "mean tumor volume", "setting": "[2]; cisplatin plus Compound X 0.06 mg/kg, Day 1", "value": 100, "unit": "mm^3"}, {"measurement": "mean tumor volume", "setting": "[2]; cisplatin plus Compound X 0.06 mg/kg, Day 15", "value": 518, "unit": "mm^3"}, {"measurement": "mean tumor volume", "setting": "[2]; cisplatin plus Compound X 0.06 mg/kg, end of the study", "value": 338, "unit": "mm^3"}, {"measurement": "mean tumor volume", "setting": "[2]; cisplatin plus Compound X 0.3 mg/kg, Day 1", "value": 104, "unit": "mm^3"}, {"measurement": "mean tumor volume", "setting": "[2]; cisplatin plus Compound X 0.3 mg/kg, Day 15", "value": 564, "unit": "mm^3"}, {"measurement": "mean tumor volume", "setting": "[2]; cisplatin plus Compound X 0.3 mg/kg, end of the study", "value": 510, "unit": "mm^3"}, {"measurement": "p, tumor volume AUC to Day 15 vs vehicle control group (ANOVA on ranks)", "setting": "[2]; cisplatin plus Compound X at 0.06 mg/kg", "value": 0.001}, {"measurement": "p, tumor volume AUC to Day 15 vs vehicle control group (ANOVA on ranks)", "setting": "[2]; cisplatin plus Compound X at 0.3 mg/kg", "value": 0.002}, {"measurement": "mice euthanized for tumor volume in excess of 1500 mm^3", "setting": "[2]; groups treated with 0.06 mg/kg IP QD Days 0-28 (alone, with radiation or cisplatin)", "value": 46.7, "unit": "%"}, {"measurement": "survival at Day 29", "setting": "[2]; groups treated with 0.06 mg/kg", "value": 20, "unit": "%"}, {"measurement": "mice euthanized for tumor ulceration", "setting": "[2]; groups treated with 0.06 mg/kg", "value": 33.3, "unit": "%"}, {"measurement": "mice euthanized for tumor volume in excess of 1500 mm^3", "setting": "[2]; groups treated with 0.3 mg/kg IP QD Days 0-28 (alone, with radiation or cisplatin)", "value": 40, "unit": "%"}, {"measurement": "survival at Day 29", "setting": "[2]; groups treated with 0.3 mg/kg", "value": 36.7, "unit": "%"}, {"measurement": "mice euthanized for tumor ulceration", "setting": "[2]; groups treated with 0.3 mg/kg", "value": 23.3, "unit": "%"}, {"measurement": "mean tumor volume", "setting": "[2]; radiation plus 0.06 mg/kg, Day 1", "value": 96, "unit": "mm^3"}, {"measurement": "mean tumor volume", "setting": "[2]; radiation plus 0.06 mg/kg, Day 15", "value": 596, "unit": "mm^3"}, {"measurement": "mean tumor volume", "setting": "[2]; radiation plus 0.06 mg/kg, end of the study", "value": 1027, "unit": "mm^3"}, {"measurement": "mean tumor volume", "setting": "[2]; radiation plus 0.3 mg/kg, Day 1", "value": 108, "unit": "mm^3"}, {"measurement": "mean tumor volume", "setting": "[2]; radiation plus 0.3 mg/kg, Day 15", "value": 616, "unit": "mm^3"}, {"measurement": "mean tumor volume", "setting": "[2]; radiation plus 0.3 mg/kg, end of the study", "value": 1376, "unit": "mm^3"}, {"measurement": "p, tumor volume AUC to Day 15 vs vehicle control group (ANOVA on ranks)", "setting": "[2]; radiation plus Compound X at 0.3 mg/kg", "value": 0.017}]}
